Entries after “also recorded” stand apart in the source; their conditions may differ.
Experiments:
[1] = NMR of cyclohexane-1,3-dione in aqueous solution (keto-enol tautomerism); assay type: physicochemical; conditions: NMR-data
Excerpt: In one embodiment, the compounds of the composition are able to undergo keto-enol tautomerism. Particularly 1,3-cyclodions, such as 1,3-cyclohexanediones, particularly such diones wherein neither or maximum one substituents are present in the C-2 position, have been found favourable as they can undergo keto-enol tautomerism. NMR-data of cyclohexane-1,3-dione support that in aqueous solution this compound exists in a highly enolised form where electrons are delocalised between the C-1-oxygen/C-1, C-2 and C-3/C-3-oxygen thereby rendering the C-2 methylene protons relatively acidic. […] It is believed that the acidity of the C-2 protons affect the solubility of the compound, providing a higher solubility than e.g. similar 1,4-carbocyclic compounds.

[2] = tested on: Gram negative bacteria (Salmonella isolates); experiment: Biofilm formation in polystyrene microtiter plates (crystal violet, OD595), Gram negative bacteria; assay type: cell-based, Salmonella ser. Typhimurium, Salmonella ser. Agona; conditions: two days at 20 °C
Description: All experiments were performed by using sterile 96-wells polystyrene microtiter plates (Nunc, Nuncleon, Roskilde, Denmark) under conditions promoting biofilm formation by the different bacterial genera. The Inhibio compound preparations of the invention; 1,3-cyclohexanedione, 1,4-cyclohexanedione, cyclopentanone, 5-ethylcyclohexane-1,3-dione and 5-methyl-1,3 cyclohexanedione 98% were solved directly in Tryptic Soy Broth (TSB) 1+1 or Liquid Microbiology Broth (LB) broth without NaCl (LB^wo/NaCl) to obtain the test concentrations, i.e. from 1 mg/ml to 10 mg/ml.
One Salmonella ser. Typhimurium (S. Typhimurium), two Salmonella ser. Agona (S. Agona) and two Escherichia coli (E. coli) isolates were used in these studies. The studies performed using 1,3-cyclohexanedione and 1,4-cyclohexanedione were done on Salmonella isolates only. The studies comparing Menthone to 1,3-cyclohexanedione were using two E. coli strains, E. coli 1242 and E. coli 1153, see FIG. 11. The Salmonella isolates were isolated from Norwegian feed factories except one S. Typhimurium strain which was a culture collection strain (ATCC 14028). The E. coli isolates were of animal origin. All strains were stored at −80° C. in BHI supplemented with 15% glycerine and were recovered on blood agar at 37.0±1.0° C. The bacterial cultures were then transferred into LB broth and incubated statically overnight at 37.0±1.0° C. to obtain an overnight working culture. A total of 30 μl of this suspension was transferred to each well in 96 wells polystyrene microtiter plates (Nunc, Nuncleon, Roskilde, Denmark) in triplets. The wells were containing 100 μl LB^wo/NaCl (bacto-tryptone 10 g/l, yeast extract 5 g/l) with 1,3-cyclohexanedione dissolved in concentration 0 mg/ml, 1 mg/ml and 10 mg/ml in the total amount of broth and 1,4-cyclohexanedione and cyclopentanone at 0 mg/ml and 10 mg/ml. The microtiter plates were incubated statically for two days, at 20±1.0° C. After incubation, OD595 was measured before the plates were gently washed one time with 150 μl tap water. The plates were dried in room temperature before addition of 140 μl 1% crystal violet (Sigma-Aldrich). After 30 minutes incubation in room temperature, the plates were washed three times with tap water before addition of 140 μl ethanol:acetone (70:30 w:w) and incubated for another 10 minutes in room temperature. OD595 was measured in a microplate photometer (Multiscan EX) after the bound dye was dissolved using ethanol:acetone. For each strain, the result was calculated by subtracting the median OD595 of the three parallels of the control (test broth only) from the median OD595 of the three parallels of sample. Further, the averages of the Gram negative strains were calculated. Three independent experiments were performed and the average was evaluated.

[3] = tested on: S. Agona and E. coli (one strain each); experiment: Biofilm formed on stainless steel coupons by Gram negative bacteria (CFU count); assay type: cell-based, Salmonella ser. Agona, Escherichia coli; conditions: 20 °C for 72 hours
Description: One strain of S. Agona (FIG. 10) and one strain of E. coli (FIG. 10) was used in this study. The study was performed using 1,3-cyclohexanedione in a concentration of 1 and 10 mg/ml. The strain was stored at −80° C. in BHI (Difco, BD, Franklin Lakes, N.J., USA) supplemented with 15% glycerine (Merck KGaA, Darmstadt, Germany) and was recovered on blood agar at 37.0±1.0° C. The bacterial culture was then transferred into LB broth and was incubated statically overnight at 37.0±1.0° C. to obtain an overnight working culture. The Inhibio compound was dissolved in LB^wo/NaCl to a concentration of 10 mg/ml and then further diluted to a concentration of 1 mg/ml. 10 ml of each solution was added to a 50 ml Falcon tube and, in a third tube, only LB broth^wo/NaCl was added as a control. […]
Following incubation, each coupon was dipped three times in three different tubes containing physiological saline and further transferred to a tube containing 5 ml cold physiological saline as well as 20 sterile silica glass beads. […] After incubation, the bacterial colonies were counted. […]
The Colony forming units (CFU) on the plate was calculated into CFU in biofilm by multiplying with a factor for each dilution. Further, the log value was calculated of the average of each dilution.

[4] = tested on: Listeria monocytogenes (six strains); experiment: Biofilm formation in microtiter plates, Listeria; assay type: cell-based; conditions: 24 hours at 35 °C
Description: Six strains of Listeria monocytogenes were used in this study isolated from food research. The strains were recovered in 200 μl TSB broth in a microtiter plate and incubated at 37° C. for 24 hours. A total of 5 μl of the bacterial suspension was transferred to a 96 wells polystyrene microtiter plate (Thermo scientific Nucleon Delta surface) together with 200 μl medium (LB^wo/NaCl) with 1,3-cyclohexanedione (dissolved to 0,625 mg/ml, 2.5 mg/ml, 5 mg/ml and 10 mg/ml) to each well. Each strain was added in duplex and incubated at 35° C. for 24 hours. After incubation, OD595 was measured before the plates were gently washed one time with 200 μl tap water. This was repeated once. The plates were dried in room temperature before addition of 200 μl 0, 1% crystal violet (Sigma-Aldrich). After 30 minutes incubation in room temperature, the plates were washed twice with 200 μl tap water and once with 240 μl. This was followed by the addition of 200 μl ethanol:acetone (70:30 w:w) and incubated for another 10 minutes in room temperature. OD595 was measured in a microplate photometer (Multiscan EX) after the bound dye was dissolved using ethanol:acetone. For each strain, the result was calculated by subtracting the average OD595 of the two parallels of the control (test broth only) from the average OD595 of the two parallels of sample. Three independent experiments were performed. The average of the 6 strains as well as the average between the experiments was calculated.

Q: With `O=C1CCCC(=O)C1` [1,3-cyclohexanedione] as the compound, how does the stability of tautomers [1] read?
A: stable at least over one day

Q: What about the “decrease in biofilm formation, percentage of the control” value ([2]; 1 mg/ml) of the same compound?
A: 70%

Q: And the “decrease in biofilm formation, percentage of the control” value ([2]; 10 mg/ml)?
A: 87%

Q: What about the “CFU in biofilm on stainless steel coupon” value ([3]; 1 mg/ml) of the same compound?
A: decrease in biofilm formation; also recorded: significant decrease

Q: And the “CFU in biofilm on stainless steel coupon” value ([3]; 10 mg/ml)?
A: could not detect any colony forming units; also recorded: no bacteria found in the biofilm

Q: What about the “decrease in biofilm formation in percentage of the control” value (from here on “decrease … in percentage of the control”) ([4]; 0.625 mg/ml) of the same compound?
A: 27%

Q: And the “decrease … in percentage of the control” value ([4]; 2.5 mg/ml)?
A: 40%

Q: And the “decrease … in percentage of the control” value ([4]; 5 mg/ml)?
A: 53%

Q: And the “decrease … in percentage of the control” value ([4]; 10 mg/ml)?
A: 70%

From patent US20190144368A1, “Compounds and compositions for biofilm prevention” (INHIBIO AS, priority 2016, published 2019)
